Measured values published in patent US7833795B2, “Assessment of cardiovascular risk using isoprostane biomarkers and COX-2 selective inhibitors” (The Trustees of the University of Pennsylvania, priority 2004, dated 2010).

Columns and labels:
Format in all cases: in vivo, rat
[1] = tested on: Male Fisher 344 rats; assay: Plasma MDA, TBA colorimetric assay with 3rd derivative spectroscopy; conditions: plasma
Description: (§1) Animals and treatment protocol: Male Fisher 344 rats (260-280 g) obtained from Charles River Laboratories (Raleigh, N.C.) were used in all experiments. The animals were housed three to a cage. Autoclaved hardwood bedding was used in solid-bottom polycarbonate cages with filter tops. Animal rooms were maintained at 20-25° C. with 35-70% relative humidity with alternating 12-hour light and dark cycles. The rats had free access to deionized, reverse-osmosis-treated water and received autoclaved NIH 31 rodent chow (Zeigler Bros., Gardners, Pa.) ad libitum. For all experiments, rats were fasted overnight and then administered intraperitoneal injections of carbon tetrachloride in canola oil. Control rats received an equal volume of canola oil. Fasting continued throughout the experiment. Rats were anesthetized with Nembutal (0.1 ml/100 g body weight) and 5 ml blood was removed from the dorsal aorta proximal to its bifurcation into the common iliac arteries.
(§2) Carbon tetrachloride (CCL4) treatment: Animals from each of the three dose groups (Control-canola oil, 120 mg/kg CCl4 i.p. and 1200 mg/kg CCl4 i.p.) were investigated at three time points (2, 7, and 16 hours after CCl4 injection). Indomethacin-pretreated rats were also investigated at the same three time points, and the meclofenamic acid-pretreated rats were investigated at one time point (7 hours). Each group consisted of five rats for each analysis, except the meclofenamic acid pretreatment group which consisted of six rats. Animal treatment, sample preparation, assessment of liver histology and serum enzyme activities are described elsewhere (Kadiiska et al., 2000, Free Radic. Biol. Med. 28: 838-845; Jackson, 1989, J. Pharmacol. Exp. Ther. 250: 9-21) and were carried out at NIEHS, Research Triangle Park, N.C.
(§3) Plasma sample preparation: Blood (5 ml) was drawn through single draw Vacutainer® needles (21 Gauge) into open Vacutainer® blood collection tubes containing heparin. The tubes were gently inverted 2-3 times for mixing and immediately placed on ice. Blood was centrifuged (2,000 rpm for 10 minutes at 4° C.) no more than 30 minutes after collection, and the plasma was collected, frozen on dry ice and stored at −70° C.
Two colorimetric-based assays, using third derivative spectroscopy, were also used to measure MDA in plasma. The TBA colorimetric assay is designed to measure free MDA and MDA-protein adducts (Schiff base), and therefore includes mild acid hydrolysis. The Bioxytech® LPO-586™ colorimetric assay is based upon the reaction of the chromogenic reagent N-methyl-2-phenylindole (NMPI) with MDA at 45° C. One molecule of free MDA combines with 2 molecules of the chromogenic agent to produce a stable chromophore with a maximal absorbance at 586 nm. In both assays, the concentration of MDA was determined with 3rd derivative spectroscopy. Both assays were developed by OXIS Research Inc., Portland, Oreg., and were performed at OXIS and at Loyola University Medical Center, Maywood, Ill.

[2] = tested on: Male Fisher 344 rats; assay: Plasma methionine sulfoxidation
Description: as §1, §2, §3
Methionine sulfoxidation was measured according to Levine et al. (1996, Proc. Natl. Acad. Sci. USA 93: 15036-15040). In brief, serum samples were hydrolyzed with HCl. The methionine sulfoxide residue was converted to methionine, which represents the methionine sulfoxide level in the protein. The samples were analyzed on a Beckman Model 7300 amino acid analyzer. The methionine concentrations were measured at Weill Medical College of Cornell University, New York, N.Y., USA.

[3] = tested on: Male Fisher 344 rats; assay: Comet assay of blood leucocyte DNA; conditions: CCl4 120 and 1200 mg/kg; 2, 7, 16 h
Description: as §1
Carbon tetrachloride (CCL4) treatment: Animals from each of the three dose groups (Control-canola oil, 120 mg/kg CCl4 i.p. and 1200 mg/kg CCl4 i.p.) were investigated at three time points (2, 7, and 16 hours after CCl4 injection). Indomethacin-pretreated rats were also investigated at the same three time points, and the meclofenamic acid-pretreated rats were investigated at one time point (7 hours). […]

[4] = tested on: Male Fisher 344 rats; assay: Urinary 8,12-iso-iPF2α-VI by LC/MS/MS; conditions: for 8,12-iso-iPF2a-VI (by LC/MS/MS): urine
Description: as §1
Indomethacin pretreatment: The indomethacin regimen used has been previously shown to inhibit COX activity in rats by 90% (dose of 5 mg/kg s.c. 24 hours, 12 hours, and 2 hours prior to the injection of CCl4) (Jackson, 1989, J. Pharmacol. Exp. Ther. 250: 9-21). An additional booster dose was injected 8 hours after the last injection of CCl4 for the measurements performed 16 hours after treatment with CCl4.
Meclofenamic acid pretreatment: Meclofenamic acid was injected at a dose of 5 mg/kg i.p. 12 h and 2 h prior to the injection of CCl4.
as §2
Urine sample preparation: The day prior to treatment, both experimental and control animals were placed in stainless steel metabolic cages especially designed for urine collection. For Experimental Example 2, animals were placed in metabolic cages immediately after the last injection of indomethacin or meclofenamic acid. Urine was collected (in dark vials) from the animals during the following intervals: 2 to 7 hours and 7 to 16 hours after CCl4 or canola oil (controls) treatment. Urine samples from indomethacin-pretreated rats were collected from 2 to 7 hours and 7 to 16 hours after the injection of CCl4, whereas samples from meclofenamic-acid-pretreated rats were collected only from 2 to 7 hours after the injection. All urine samples were immediately frozen on dry ice and stored at −70° C.
Analysis of 8,12-iso-iPF2α-VI, which is, along with its epimer 5-epi-8,12-iso-iPF2α-VI, the most prevalent PGF-ring isoprostane in human urine, was accomplished by addition of a tetradeuterated analog, solid phase extraction and quantitation using liquid chromatography and tandem mass spectroscopy (LC/MS/MS) (Li et al., 1999, Proc. Natl. Acad. Sci. USA 96: 13381-13386). The measurements were performed at the University of Pennsylvania, Philadelphia, Pa.

## ClC(Cl)(Cl)Cl [CCl4, Carbon tetrachloride]
[1]; CCl4 120 mg/kg i.p., 2 h
  plasma MDA: 0.268 µM
[1]; CCl4 120 mg/kg i.p., 7 h
  plasma MDA: 0.209 µM
[1]; CCl4 120 mg/kg i.p., 16 h
  plasma MDA: 0.214 µM
[1]; CCl4 1200 mg/kg i.p., 2 h
  plasma MDA: 0.686 µM
[1]; CCl4 1200 mg/kg i.p., 7 h
  plasma MDA: 0.274 µM
[1]; CCl4 1200 mg/kg i.p., 16 h
  plasma MDA: 0.156 µM
[2]; CCl4 120 mg/kg i.p., 2 h
  Methionine sulfoxide: 2.3 % of total methionine
[2]; CCl4 120 mg/kg i.p., 7 h
  Methionine sulfoxide: 1.7 % of total methionine
[2]; CCl4 120 mg/kg i.p., 16 h
  Methionine sulfoxide: 3.1 % of total methionine
[2]; CCl4 1200 mg/kg i.p., 2 h
  Methionine sulfoxide: 1.8 % of total methionine
[2]; CCl4 1200 mg/kg i.p., 7 h
  Methionine sulfoxide: 1.1 % of total methionine
[2]; CCl4 1200 mg/kg i.p., 16 h
  Methionine sulfoxide: 1.7 % of total methionine
[3]
  Comet assay: % migrated DNA, tail length, tail moment: statistically significant increase only at the low dose of CCl4 at 16 hours
[4]; CCl4 120 mg/kg i.p., 7 h
  8,12-iso-iPF2a-VI (by LC/MS/MS): 36.8 ng/mL
[4]; CCl4 120 mg/kg i.p., 16 h
  8,12-iso-iPF2a-VI (by LC/MS/MS): 32.4 ng/mL
[4]; CCl4 1200 mg/kg i.p., 7 h
  8,12-iso-iPF2a-VI (by LC/MS/MS): 84.3 ng/mL
[4]; CCl4 1200 mg/kg i.p., 16 h
  8,12-iso-iPF2a-VI (by LC/MS/MS): 78.5 ng/mL
[4]; high dose CCl4, 7 h
  increase of urinary 8,12-iso-iPF2α-VI: 17 fold
[4]; high dose CCl4, 16 h
  increase of urinary 8,12-iso-iPF2α-VI: 7 fold
